Test results from patent publication US9725449B2, “Tricyclic compounds as anticancer agents” (BRISTOL-MYERS SQUIBB COMPANY, priority 2015, dated 2017).

Molecular target: BRD4 (Homo sapiens, UniProt O60885)
Experiment: Time resolved fluorescence resonance energy transfer (TR-FRET) binding assay, bromodomain BRD4
Conditions: one of the FRET assays described; read-out: FRET BRD4 IC50

| SMILES | IC50 [nM] |
| --- | --- |
| Cc1nnn(C)c1-c1cnc2c3ccc(S(N)(=O)=O)nc3n([C@H](c3ccccc3)C3CCOCC3)c2c1 [Example 195, 5-(Dimethyl-1H-1,2,3-triazol-5-yl)-8-[(S)-oxan-4-yl(phenyl)methyl]-3,8,10-triazatricyclo[7.4.0.0^2,^7]trideca-1(9),2(7),3,5,10,12-hexaene-11-sulfonamide] | < 10 |
| Cc1nnn(C)c1-c1cnc2c3ccc(N4CCOCC4)nc3n([C@H](c3ccccc3)C3CCOCC3)c2c1 [Example 178, 5-(Dimethyl-1H-1,2,3-triazol-5-yl)-11-(morpholin-4-yl)-8-[(S)-oxan-4-yl(phenyl)methyl]-3,8,10-triazatricyclo[7.4.0.0^2,^7]trideca-1(9),2(7),3,5,10,12-hexaene] | < 1 |
| COc1ncc(S(C)(=O)=O)c2c1c1ncc(-c3c(C)noc3C)cc1n2C(c1ccccc1)C1CCC(F)(F)CC1 (single isomer, unassigned) [Example 88, 8-[(4,4-Difluorocyclohexyl)(phenyl)methyl]-5-(dimethyl-1,2-oxazol-4-yl)-10-methanesulfonyl-13-methoxy-3,8,12-triazatricyclo[7.4.0.0^2,^7]trideca-1(13),2(7),3,5,9,11-hexaene] | < 10 |
| Cc1noc(C)c1-c1cnc2c3cnc(Cl)cc3n(C(c3ccc(Cl)cn3)C3CCOCC3)c2c1 (single isomer, unassigned) [Example 327] | < 1500 |
| Cc1nnn(C)c1-c1cnc2c3ccc(N4CCS(=O)(=O)CC4)nc3n([C@H](c3ccccc3)C3CCOCC3)c2c1 [Example 182, 4-[5-(Dimethyl-1H-1,2,3-triazol-5-yl)-8-[(S)-oxan-4-yl(phenyl)methyl]-3,8,10-triazatricyclo[7.4.0.0^2,^7]trideca-1(9),2(7),3,5,10,12-hexaen-11-yl]-1,4-thiomorpholine-1,1-dione] | < 1 |
| [2H]C([2H])([2H])c1nnn(C)c1-c1cnc2c3cnc(C(C)(C)O)cc3n(C(CCC)c3ncccc3F)c2c1 (centres unmarked) [Example 359, 2-{8-[1-(3-Fluoropyridin-2-yl)butyl]-5-[4-(^2H3)methyl-1-methyl-1H-1,2,3-triazol-5-yl]-3,8,12-triazatricyclo[7.4.0.0^2,^7]trideca-1(13),2(7),3,5,9,11-hexaen-11-yl}propan-2-ol] | < 10 |
| Cc1nnn(C)c1-c1cnc2c3c(NS(=O)(=O)CC4CC4)ncc(S(C)(=O)=O)c3n([C@H](c3ccccc3)C3CCOCC3)c2c1 [Example 104, 1-Cyclopropyl-N-[5-(dimethyl-1H-1,2,3-triazol-5-yl)-10-methanesulfonyl-8-[(S)-oxan-4-yl(phenyl)methyl]-3,8,12-triazatricyclo[7.4.0.0^2,^7]trideca-1(13),2(7),3,5,9,11-hexaen-13-yl]methanesulfonamide] | < 10 |
| [2H]C([2H])([2H])c1nnn(C)c1-c1cnc2c3ccc(N4CCN(C)CC4)nc3n([C@H](c3ccccc3F)C3CCOCC3)c2c1 [Example 234, 8-[(S)-(2-Fluorophenyl)(oxan-4-yl)methyl]-5-[4-(^2H3)methyl-1-methyl-1H-1,2,3-triazol-5-yl]-11-(4-methylpiperazin-1-yl)-3,8,10-triazatricyclo[7.4.0.0^2,^7]trideca-1(13),2(7),3,5,9,11-hexaene] | < 10 |
| [2H]C([2H])([2H])c1nnn(C)c1-c1cnc2c3c(OC)ncc(S(C)(=O)=O)c3n(C(c3c(F)cc(F)cc3F)C3CCOCC3)c2c1 (single isomer, unassigned) [Example 83, 10-Methanesulfonyl-13-methoxy-5-[4-(^2H3)methyl-1-methyl-1H-1,2,3-triazol-5-yl]-8-[oxan-4-yl(2,4,6-trifluorophenyl)methyl]-3,8,12-triazatricyclo[7.4.0.0^2,^7]trideca-1(13),2(7),3,5,9,11-hexaene] | < 1 |
| Cc1nnn(C)c1-c1cnc2c3ccc(N4CCS(=O)(=O)C(C)C4)nc3n([C@H](c3ccccc3)C3CCOCC3)c2c1 (single isomer, unassigned; diastereomer b) [Example 218] | < 1 |
| Cc1noc(C)c1-c1cnc2c3cnc(Cl)cc3n(C(c3ccc(Cl)cn3)C3CCOCC3)c2c1 (single isomer, unassigned) [Example 328] | < 10 |
| Cc1nnn(C)c1-c1cnc2c3ccc(C#N)nc3n([C@H](c3ccccc3)C3CCOCC3)c2c1 [Example 169, 5-(Dimethyl-1H-1,2,3-triazol-5-yl)-8-[(S)-oxan-4-yl(phenyl)methyl]-3,8,10-triazatricyclo[7.4.0.0^2,^7]trideca-1(9),2(7),3,5,10,12-hexaene-11-carbonitrile] | < 10 |
| [2H]C([2H])([2H])c1nnn(C)c1-c1cnc2c3ccc(N4C[C@@H](C)O[C@@H](C)C4)nc3n([C@H](c3ccccc3F)C3CCOCC3)c2c1 [Example 237, 11-[(2R,6S)-2,6-Dimethylmorpholin-4-yl]-8-[(S)-(2-fluorophenyl)(oxan-4-yl)methyl]-5-[4-(^2H3)methyl-1-methyl-1H-1,2,3-triazol-5-yl]-3,8,10-triazatricyclo[7.4.0.0^2,^7]trideca-1(13),2(7),3,5,9,11-hexaene] | < 1 |
| CCCC(c1ccc(F)cn1)n1c2cc(-c3c(C)nnn3C)ncc2c2ncc(C(C)(C)O)cc21 (single isomer, unassigned) [Example 376] | < 10 |
